Test results reported in US20230104823A1, “PROCESS FOR THE PREPARATION OF PURINE DERIVATIVES EXHIBITING CDK INHIBITORY ACTIVITY” (CYCLACEL LIMITED, priority 2020, published 2023).
Converted amounts (≈) assume the structure as drawn.

Columns and labels:
CDK = settings: statement in background section; cited from earlier work
[1] = solubility measurement during crystallisation of crude compound [1]; type: physicochemical; settings: for T=0 solubility measurement: 5 volumes
Description: The hot mixture was clarified through a heated large nylon syringe filter (0.44 μm) into a Mya4 100 ml process vessel with overhead U-shape agitation at 200 RPM pre-heated to 95° C. (target internal temperature=80-85° C.). The dark brown solution was cooled to 74.5° C. over 15 minutes and seeded with crystals of compound [1] (Form A) (ca. 6 mg 0.1% wt). […] Noticeable amounts of off-white precipitate were observed ca. 61-62° C. Following cooling, the mixture was held at 0° C. for ca. 3 hours. The solids were isolated via filtration, with no evidence of fouling of the vessel or agitator. The vessel and filter cake were washed with the isolated filtrates and air dried for 15 minutes before collection of the off-white solids and dark brown liquors. The solids were collected and dried in vacuo at 45° C. for ca. 4 hours to yield the title compound. 4.88 g of crystalline Compound [1] was successfully isolated in 80.1% yield. The maximum theoretical recovery based upon measured solubility pre-isolation at 0° C. was 94.2%.
Crude Compound [1] (6.00 g) was suspended ethyl acetate (30 ml, 5 volumes) in a suitable glass vessel under N2 fitted with reflux condenser and stirrer bead agitation at 420 RPM. The beige suspension was heated to 75° C. (target 70-75° C.) upon which full dissolution to a dark brown solution was achieved during heating at ca. 68° C. The hot mixture was clarified through a heated large nylon syringe filter (0.44 μm) into a Mya4 100 ml process vessel with overhead U-shape agitation at 200 RPM pre-heated to 85° C. (target internal temperature=70-75° C.). The dark brown solution was cooled to 65.2° C. over 15 minutes (target 62.5-67.5° C.) and seeded with crystals of compound [1] (Form A) (ca. 6 mg 0.1% wt). Cooling was continued to 59.8° C. […] The solids were isolated via filtration. The vessel and filter cake were washed with the isolated filtrates and air dried for 12 minutes before collection of the off-white solids and dark brown liquors. The solids were collected and dried in vacuo at 45° C. for ca. 4 hours to yield the title compound. 4.59 g of crystalline Compound [1] was successfully isolated in 76.4% yield. The maximum theoretical recovery based upon measured solubility pre-isolation at 0° C. was 90.6%.
Crude Compound [1] (5.96 g) was suspended n-Butyl acetate (30 ml, 5 volumes) in a suitable glass vessel under N2 fitted with reflux condenser and stirrer bead agitation at 420 RPM. The beige suspension was heated to 85° C. (target 80-85° C.) upon which full dissolution to a dark brown solution was achieved during heating at ca. 82° C. The hot mixture was clarified through a heated large nylon syringe filter (0.44 μm) into a Mya4 100 ml process vessel with overhead U-shape agitation at 200 RPM pre-heated to 95° C. (target internal temperature=80-85° C.). The dark brown solution was cooled to 74.6° C. over 15 minutes (target 72.5-77.5° C.) and seeded with crystals of compound [1] (Form A) (ca. 6 mg 0.1% wt). Cooling was continued to 69.5° C. […] The solids were isolated via filtration. The vessel and filter cake were washed with the isolated filtrates and air dried for 10 minutes before collection of the grey solids and dark brown liquors. The solids were collected and dried in vacuo at 45° C. for ca. 4 hours to yield the title compound. 4.64 g of crystalline Compound [1] was successfully isolated in 77.9% yield. The maximum theoretical recovery based upon measured solubility pre-isolation at 0° C. was 91.7%.

[2] = system: range of different cell lines; settings: statement in background section; cited from earlier work

T=0 solubility measurement ([1]; ethyl acetate, after seeding at 59.8° C.): 184.35 mg/mL
solubility ([1]; ethyl acetate, held at 0° C. for ca. 5 hours (90.06% development)): 18.84 mg/mL (≈ 47.4 mM)
T=0 solubility measurement ([1]; isopropyl acetate, after seeding at 70.1° C.): 189.83 mg/mL
T=0 solubility measurement ([1]; n-butyl acetate, after seeding at 69.5° C.): 175.84 mg/mL
solubility ([1]; n-butyl acetate, held at 0° C. for ca. 3 hours (91.7% development)): 16.61 mg/mL (≈ 41.8 mM)
SMILES: CC[C@H](Nc1nc(NCc2cnc(C)cc2C)c2ncn(C(C)C)c2n1)[C@@H](C)O [Compound [1]]
CDK inhibitory activity (CDK): potent CDK inhibitory activity
potency in cellular toxicity studies [2]: surprisingly high potency
